Data: patent US12122780B2, “Pyrimidinyl group-containing tricyclic compound serving as c-Met inhibitor” (JIANGSU AOSAIKANG PHARMACEUTICAL CO., LTD., priority 2019, dated 2024)
Counter-ions that a name gives are not always drawn.

Columns and labels:
[1] = test system: Hs746T cells; assay: Hs746T cell proliferation experiment (CellTiter-Glo); assay type: cell-based; conditions: Homo sapiens, 96 h, 4 days
Experimental: DMEM medium was purchased from Gibco, and fetal bovine serum was purchased from Hyclone. Hs746T cell line was purchased from ATCC. Envision multi-label analyzer (PerkinElmer).
Hs746T cells were seeded in a 384-well plate, 50 μL of cell suspension per well, which contained 1500 Hs746T cells. The cell plate was placed in a carbon dioxide incubator for overnight culture.
The compounds to be tested were 3-fold diluted into 9 concentrations with Tecan, double-duplicate well experiment was set, and the final compound concentrations added to the 384-well cell plate were 1000 nM to 0.15 nM. The cell plate was cultured in a carbon dioxide incubator for 4 days.
After 4 days, 25 μL of Promega CellTiter-Glo reagent was added to each well of this cell plate, and incubated at room temperature for 10 minutes to stabilize the luminescence signal. Readings were taken using a PerkinElmer Envision multi-label analyzer.
The action curves of the compounds were automatically fitted using Xlfit software and the values of IC50 were calculated, High control was the values of DMSO-treated wells and Low control was the values of cell-free medium wells.

[2] = target: c-Met enzyme (Homo sapiens (Human), UniProt P08581); assay: c-Met enzyme activity inhibition (Promega c-Met Kinase Enzyme System, ADP-Glo); assay type: biochemical; conditions: 10 μM ATP, 60 min, 30° C.
Experimental: To detect the inhibitory effect of the compounds on c-Met enzyme activity.
The c-Met Kinase Enzyme System was purchased from Promega. Envision multi-label analyzer (PerkinElmer).
The kinase buffer in the kit was used to dilute the enzyme, substrate, ATP and inhibitor.
The compound to be tested was diluted 5-fold to the eighth concentration with a discharge gun, i.e., from 50 μM to […], with a final DMSO concentration of 5%, and double duplicate wells experiment was set. 1 μL of each concentration gradient of the inhibitor, 2 μL of c-Met enzyme (4 ng), 2 μL of a mixture of the substrate and ATP (10 μM ATP, 0.2 μg/μL poly E4Y1) were added to the microplate, and the final concentration gradient of the compound of 10 μM was diluted to 0.13 nM. The reaction system was placed at 30° C. and the reaction was carried out for 60 minutes. When the reaction was completed, 5 μL of ADP-Glo reagent was added to each well and the reaction was carried out at 30° C. for another 40 minutes, when the reaction was completed, 10 μL of kinase detection reagent was added to each well, then the reaction was carried out at 30° C. for still another 30 minutes, chemiluminescence was read by the PerkinElmer Envision multi-label analyzer with an integration time of 0.5 seconds.
Using the equation (Sample-Min)/(Max-Min)*100% to convert the original data to the inhibition rate, the IC50 value can be obtained by curve fitting with four parameters (obtained by log(inhibitor) vs. response in GraphPad Prism—Variable slope mode).

[3] = Pharmacokinetics of single intravenous and oral administration in dogs; assay type: in vivo; conditions: for Vd / clearance / half-life / bioavailability: dog, plasma; for Vd / clearance / half-life / Exposure AUC: intravenous injection, 1 mg/kg; for Vd: read-out: Apparent volume of distribution; for clearance: read-out: Clearance rate; for half-life: read-out: Half-life (T1/2) (converted); for bioavailability / Exposure AUC0-last / Maximum blood concentration / Peak time: oral administration, 5 mg/kg
Experimental: The objective of this experiment was to study the pharmacokinetics (PK) of the test compound in different species after a single intravenous and a single oral administration.
After intravenous injection or oral administration, animal blood samples were collected and the actual blood collection time was recorded. Immediately after collection, blood samples were transferred to labeled centrifuge tubes containing K2-EDTA and subsequently centrifuged and processed to obtain plasma. Plasma was transferred to pre-cooled centrifuge tubes, snap-frozen in dry ice and stored in an ultra-low temperature refrigerator at −70±10° C. until LC-MS was performed.
Plasma drug concentration data of the compounds were processed using pharmacokinetic software with a non-compartmental model. The peak concentration (Cmax) and time to peak (Tmax), as well as the quantifiable end time, were obtained directly from the blood concentration-time diagram. The log-linear trapezoidal method was used to calculate the following pharmacokinetic parameters: half-life (T1/2), apparent volume of distribution (Vdss) and clearance rate (Cl), and the area under the time-plasma concentration curve from 0 points to the end time (AUC0-last), the initial concentration (C0).

[4] = test system: human gastric cancer Hs746T xenograft tumor; assay: In vivo drug efficacy, human gastric cancer Hs746T xenograft tumor in nude mice; design: species or system BALB/c nude mice; conditions: for TGI (tumor growth inhibition rate) / TRTV/CRTV (relative tumor proliferation rate T/C): after 20 days; for Tumor volume: n = 6
Experimental: BALB/c nude mice, female, 6-8 weeks old, weighing about 18-22 grams, animals were raised in SPF-class animal rooms in IVC (independent air supply system, constant temperature and humidity) cages (3 per cage). All cages, bedding and water were disinfected before use. All animals had free access to standard certified commercial laboratory diets. 0.2 mL (5×10^6 cells) of Hs746T cell suspension (with matrix gel, volume ratio 1:1) was subcutaneously inoculated on the right back of each mouse, and a total of 55 mice were inoculated. When the average tumor volume reached 160 mm^3, a random stratified grouping method was adopted according to the tumor volume and animal body weight to start grouping administration. The test compound was orally administered daily, the two doses of hydrochloride of compound 25 were 3 mg/kg and 6 mg/kg, respectively, and the dose of hydrochloride of compound 39 was 3 mg/kg. The tumor diameter was measured with vernier calipers twice a week. The calculation formula of tumor volume was: V=0.5a×b^2, a and b represented the long diameter and short diameter of the tumor, respectively. The anti-tumor efficacy of the compound was evaluated by TGI (%) or the relative tumor proliferation rate T/C (%). Relative tumor proliferation rate T/C (%)=TRTV/CRTV×100% (TRTV: average RTV in the treatment group; CRTV: average RTV in the negative control group). The relative tumor volume (RTV) was calculated according to the results of tumor measurement, the calculation formula was RTV=Vt/V0, wherein V0 was the tumor volume measured at the time of the grouping administration (i.e. D0), Vt was the tumor volume of the mice at a certain measurement, and TRTV and CRTV were taken on the same day. TGI (%) reflected the tumor growth inhibition rate. TGI (%)=[(1−(average tumor volume of a certain treatment group after administration-average tumor volume of the treatment group at the beginning of administration))/(average tumor volume of the solvent control group after the administration-average tumor volume of the solvent control group at the beginning of the administration)]×100%. Statistical analysis was performed based on the tumor volume (RTV) on the 20th day, and SPSS software was used for analysis.

[5] = 3 mg/kg oral daily, day 0, mean ± standard error
[6] = 3 mg/kg oral daily, day 2, mean ± standard error
[7] = 3 mg/kg oral daily, day 5, mean ± standard error
[8] = 3 mg/kg oral daily, day 9, mean ± standard error
[9] = 3 mg/kg oral daily, day 12, mean ± standard error
[10] = 3 mg/kg oral daily, day 16, mean ± standard error
[11] = 3 mg/kg oral daily, day 19, mean ± standard error
[12] = 3 mg/kg oral daily, day 20, mean ± standard error

Sequence of c-Met enzyme (P08581 956-1390): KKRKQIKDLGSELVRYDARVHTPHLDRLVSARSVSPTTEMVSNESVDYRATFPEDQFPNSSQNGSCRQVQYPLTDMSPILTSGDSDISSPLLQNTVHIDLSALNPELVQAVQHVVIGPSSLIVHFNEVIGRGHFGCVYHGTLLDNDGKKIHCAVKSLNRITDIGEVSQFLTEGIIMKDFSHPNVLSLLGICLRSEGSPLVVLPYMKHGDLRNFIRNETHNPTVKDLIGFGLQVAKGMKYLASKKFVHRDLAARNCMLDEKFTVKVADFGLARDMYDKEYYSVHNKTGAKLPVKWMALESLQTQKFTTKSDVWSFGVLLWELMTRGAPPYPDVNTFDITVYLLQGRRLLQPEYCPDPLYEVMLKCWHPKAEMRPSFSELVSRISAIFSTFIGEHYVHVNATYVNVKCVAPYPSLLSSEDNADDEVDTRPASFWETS

Q: Which IC50 [1] does the source give for `CC(C)N1CCC(COc2cnc(-c3cccc(Cn4c(=O)ccn5c6cc(C#N)ccc6nc45)c3)nc2)CC1` [Hydrochloride of compound 25] here?
A: The IC50 was 2.2 nM.

Q: And the IC50 [2]?
A: The IC50 was 2.75 nM.

Q: What about the Vd [3] of the same compound?
A: Its Vd is 14.4 L/kg.

Q: What about the clearance [3] of the same compound?
A: The clearance was 24.2 mL/min/kg.

Q: And the half-life [3]?
A: The half-life was 7.87 h.

Q: And the bioavailability [3]?
A: Its bioavailability is 57.7%.

Q: What about the Exposure AUC [3] of the same compound?
A: Its Exposure AUC is 1.23 µM·h.

Q: And the Exposure AUC0-last [3]?
A: The Exposure AUC0-last was 3.54 µM·h.

Q: What about the Maximum blood concentration [3] of the same compound?
A: The Maximum blood concentration was 246 nM.

Q: And the Peak time [3]?
A: The Peak time was 4 h.

Q: And the “TGI (tumor growth inhibition rate)” value ([4]; 3 mg/kg oral daily)?
A: The value was 96.6%.

Q: And the “TRTV/CRTV (relative tumor proliferation rate T/C)” value ([4]; 3 mg/kg oral daily)?
A: Its value is 10.2%.

Q: And the Tumor volume [4, 5]?
A: The Tumor volume was 160 ± 7 mm^3.

Q: And the Tumor volume [4, 6]?
A: The Tumor volume was 179 ± 8 mm^3.

Q: What about the Tumor volume [4, 7] of the same compound?
A: The Tumor volume was 173 ± 12 mm^3.

Q: What about the Tumor volume [4, 8] of the same compound?
A: Its Tumor volume is 151 ± 7 mm^3.

Q: And the Tumor volume [4, 9]?
A: Its Tumor volume is 144 ± 6 mm^3.

Q: What about the Tumor volume [4, 10] of the same compound?
A: Its Tumor volume is 139 ± 20 mm^3.

Q: What about the Tumor volume [4, 11] of the same compound?
A: The Tumor volume was 221 ± 49 mm^3.

Q: What about the Tumor volume [4, 12] of the same compound?
A: The Tumor volume was 234 ± 79 mm^3.

Q: What about the Tumor volume ([4]; 3 mg/kg oral daily, day 20, mean ± standard error, listed as hydrochloride of compound 25) of the same compound?
A: The Tumor volume was 234 mm^3.

Q: What about the “TGI (tumor growth inhibition rate)” value ([4]; 6 mg/kg oral daily) of the same compound?
A: Its value is 106.7%.

Q: And the “TRTV/CRTV (relative tumor proliferation rate T/C)” value ([4]; 6 mg/kg oral daily)?
A: Its value is 0.7%.

Q: And the Tumor volume ([4]; 6 mg/kg oral daily, day 0, mean ± standard error)?
A: Its Tumor volume is 160 ± 7 mm^3.

Q: What about the Tumor volume ([4]; 6 mg/kg oral daily, day 2, mean ± standard error) of the same compound?
A: The Tumor volume was 146 ± 6 mm^3.

Q: And the Tumor volume ([4]; 6 mg/kg oral daily, day 5, mean ± standard error)?
A: Its Tumor volume is 118 ± 6 mm^3.

Q: And the Tumor volume ([4]; 6 mg/kg oral daily, day 9, mean ± standard error)?
A: Its Tumor volume is 89 ± 9 mm^3.

Q: And the Tumor volume ([4]; 6 mg/kg oral daily, day 12, mean ± standard error)?
A: The Tumor volume was 83 ± 9 mm^3.

Q: And the Tumor volume ([4]; 6 mg/kg oral daily, day 16, mean ± standard error)?
A: The Tumor volume was 55 ± 6 mm^3.

Q: And the Tumor volume ([4]; 6 mg/kg oral daily, day 19, mean ± standard error)?
A: The Tumor volume was 30 ± 4 mm^3.

Q: And the Tumor volume ([4]; 6 mg/kg oral daily, day 20, mean ± standard error)?
A: Its Tumor volume is 17 ± 4 mm^3.

Q: What about the Tumor volume ([4]; 6 mg/kg oral daily, day 20, mean ± standard error, listed as hydrochloride of compound 25) of the same compound?
A: Its Tumor volume is 17 mm^3.

Q: Which IC50 [1] does the source give for `CC(C)(O)CN1CCC(COc2cnc(-c3cccc(Cn4c(=O)ccn5c6cc(C#N)ccc6nc45)c3)nc2)CC1` [Hydrochloride of compound 39] here?
A: The IC50 was 1.5 nM.

Q: And the IC50 [2]?
A: The IC50 was 5.51 nM.

Q: And the Vd [3]?
A: The Vd was 14.6 L/kg.

Q: And the clearance [3]?
A: The clearance was 18.7 mL/min/kg.

Q: What about the half-life [3] of the same compound?
A: The half-life was 9.47 h.

Q: What about the bioavailability [3] of the same compound?
A: The bioavailability was 70.6%.

Q: What about the Exposure AUC [3] of the same compound?
A: Its Exposure AUC is 1.34 µM·h.

Q: And the Exposure AUC0-last [3]?
A: The Exposure AUC0-last was 4.74 µM·h.

Q: And the Maximum blood concentration [3]?
A: Its Maximum blood concentration is 451 nM.

Q: And the Peak time [3]?
A: The Peak time was 5 h.

Q: What about the “TGI (tumor growth inhibition rate)” value ([4]; 3 mg/kg oral daily) of the same compound?
A: Its value is 106.7%.

Q: What about the “TRTV/CRTV (relative tumor proliferation rate T/C)” value ([4]; 3 mg/kg oral daily) of the same compound?
A: The value was 0.7%.

Q: And the Tumor volume [4, 5]?
A: Its Tumor volume is 160 ± 6 mm^3.

Q: What about the Tumor volume [4, 6] of the same compound?
A: Its Tumor volume is 159 ± 8 mm^3.

Q: What about the Tumor volume [4, 7] of the same compound?
A: The Tumor volume was 125 ± 4 mm^3.

Q: And the Tumor volume [4, 8]?
A: Its Tumor volume is 92 ± 3 mm^3.

Q: And the Tumor volume [4, 9]?
A: Its Tumor volume is 82 ± 5 mm^3.

Q: What about the Tumor volume [4, 10] of the same compound?
A: The Tumor volume was 59 ± 7 mm^3.

Q: What about the Tumor volume [4, 11] of the same compound?
A: Its Tumor volume is 26 ± 4 mm^3.

Q: What about the Tumor volume [4, 12] of the same compound?
A: Its Tumor volume is 16 ± 3 mm^3.

Q: And the Tumor volume ([4]; 3 mg/kg oral daily, day 20, mean ± standard error, listed as hydrochloride of compound 39)?
A: The Tumor volume was 16 mm^3.
